Source: the NIST ThermoML archive (doi:10.1016/j.jct.2013.11.020)
Numbers after ± are expanded uncertainties.

Legend:
[1] = 298.15 K; 101.33 kPa; Liquid; Vibrating tube method
[2] = refractive index (Na D-line) (dimensionless); conditions: 298.15 K; 101.33 kPa; Liquid; Standard Abbe refractometry

SMILES	mass density [1] [kg/m3]	refractive index [2]
Cc1ccccc1 [toluene]	862.17 ± 0.13	1.49399 ± 0.00031
CCCCCC [hexane]	655.19 ± 0.2	1.37234 ± 0.00033
CCc1ccccc1 [ethylbenzene]	862.51 ± 0.13	1.49304 ± 0.00031
C1=CCCCC1 [cyclohexene]	805.69 ± 0.24	1.44378 ± 0.00037
CCCC[n+]1ccn(C)c1.O=S(=O)([N-]S(=O)(=O)C(F)(F)F)C(F)(F)F	1436.35 ± 0.61	1.42706 ± 0.00037
CCCn1cc[n+](C)c1.O=S(=O)([N-]S(=O)(=O)C(F)(F)F)C(F)(F)F	1474.44 ± 0.65	1.42526 ± 0.00037
CCCCn1cc[n+](C)c1.COS(=O)(=O)[O-] [1-butyl-3-methylimidazolium methyl sulfate]	1212.59 ± 0.41	1.47792 ± 0.00037
